This note sets out measurements from US20260108547A1, “LEVERAGING L-FUCOSE-MEDIATED SIGNALING TO INDUCE MONOCYTE-DERIVED DENDRITIC CELL POLARIZATION” (H. LEE MOFFITT CANCER CENTER AND RESEARCH INSTITUTE, INC., priority 2022, published 2026).

Assay [1] deals with SW1 tumors. Description: Immunofluorescent (AAL) analysis of mouse tumor tissue fucosylation. Type of assay: in vivo. The note with it: oral L-fuc; SW1 model. How it is done:
In general, paraffin-embedded FFPE tumor tissue sections (or the TMA slide) were melted at 70° C. for 30 min. The slides were further de-paraffinizeded using xylene and rehydrated in serial alcohol washes. The slides were pressure cooked at 15 PSI for 15 min in a 1×DAKO antigen retrieval buffer (Agilent Technologies (Santa Clara, CA)). The tumor sections were subject to two 5-min standing washes in PBS prior to blocking in 1× Carb-Free Blocking Solution (Vector Labs (Burlingame, CA)) for 2-3h. The slides were next washed twice and incubated with indicated lectin and/or antibodies.
For assessment of mouse tumor fucosylation, FFPE tumor sections were immunostained with FITC-conjugated AAL lectin (0.4 μg/mL, Vector Laboratories (Burlingame, CA)) and rabbit anti-Mart1+rabbit anti-S100 (melanoma marker cocktail). The slides were mounted with Vectashield+DAPI (Vector Laboratories (Burlingame, CA)). Four representative microscopy images per tumor were acquired using a Keyence BZ-X710, and images were process and analyzed using FUI (NIH) as follows: melanoma marker-positive regions were assigned as regions of interest (ROI) in which we measured Integrated density of AAL signal. Integrated densities of control tumors were assigned as 1, and Integrated AAL density values of experimental tumors were divided by control to produce relative fold changes and plotted as column charts.

The subject of assay [2] is SW1 tumors. Description: SW1 tumor growth in NSG (immunodeficient) mice. Type of assay: in vivo, mouse. From the text: All animals were housed at the Vincent A. Stabile Research building animal facility at H. Lee Moffitt Cancer Center & Research Institute, which is fully accredited by the Association for Assessment and Accreditation of Laboratory Animal Care International (AAALAC, #434), and are managed in accordance with the Guide for the Care and Use of Laboratory Animals (“The Guide”), the Animal Welfare Regulations Title 9 Code of Federal Regulations Subchapter A, “Animal Welfare”, Parts 1-3 (AWR), the Public Health Service Policy on Humane Care and Use of Laboratory Animals (PHS Policy), and by the USF Institutional Animal Care and Use Committee's Principles and Procedures of Animal Care and Use (IACUC Principles). The experiments and protocols detailed in this study received institutional approval by the Moffitt IACUC (RIS00001625). Four-to-six-week-old female C3H/HeN and male C57BL6 mice were purchased from Charles Rivers Laboratories for the indicated experiments. Four-to-six-week-old male NSG mice from the Lau laboratory breeding colony were used for the indicated experiments. Power calculations were used to determine mouse cohort sizes to detect significant changes in tumor sizes. […] Mouse tumor volumes were measured using length, width and depth divided by 2. […]

Assay [3] has as its system bone marrow-derived MCs (BMMCs). Description: BMMC / T cell ex vivo co-culture (CTV proliferation, interferon-gamma release). Type of assay: cell-based. From the text:
We next sought to see how the immunostimulatory capacity of these cells was altered after L-fucose treatment by culturing L-fucose modulated, either by decreased fucosylation via 2FF or increased fucosylation by L-fuc, MCs with immature T cells to asses (FIG. 22B) proliferation by loss of CTV staining and (FIG. 22C) T cell activation as evident by interferon-gamma release.

The test system of the next assay is SW1 tumor cells. Description: Co-culture of pretreated moDCs with GFP-expressing SW1 tumor cells (GFP loss, LDH release). The note with it: loss of GFP fluorescence. Type of assay: cell-based, mouse. From the text: We next sought to determine if the change in phagocytosis we observe in the bead uptake assay was accompanied with increased cytotoxic tendencies in the L-fucose-treated moDCs. To this end we co-cultured pretreated moDCs with GFP-expressing SW1 tumor cells to observe (FIG. 26C) loss of GFP fluorescence correlating with SW1 and (FIG. 26D) release of LDH as markers of cell death.
In general terms: Release of lactate dehydrogenase indicates damage to the cell membrane.

Assay [4] has as its system SW1 tumors. Description: Volumetric tumor growth, SW1 melanoma in C3H/HeN mice (incl. immunodepletion, FTY720, anti-PD1). Type of assay: in vivo, mouse. The note with it: SW1 model. From the text:
All animals were housed at the Vincent A. Stabile Research building animal facility at H. Lee Moffitt Cancer Center & Research Institute, which is fully accredited by the Association for Assessment and Accreditation of Laboratory Animal Care International (AAALAC, #434), and are managed in accordance with the Guide for the Care and Use of Laboratory Animals (“The Guide”), the Animal Welfare Regulations Title 9 Code of Federal Regulations Subchapter A, “Animal Welfare”, Parts 1-3 (AWR), the Public Health Service Policy on Humane Care and Use of Laboratory Animals (PHS Policy), and by the USF Institutional Animal Care and Use Committee's Principles and Procedures of Animal Care and Use (IACUC Principles). The experiments and protocols detailed in this study received institutional approval by the Moffitt IACUC (RIS00001625). Four-to-six-week-old female C3H/HeN and male C57BL6 mice were purchased from Charles Rivers Laboratories for the indicated experiments. Four-to-six-week-old male NSG mice from the Lau laboratory breeding colony were used for the indicated experiments. Power calculations were used to determine mouse cohort sizes to detect significant changes in tumor sizes. In general, 10 mice per indicated cohort to accommodate for incidental loss of mice due to issues beyond our control (e.g., incidental tumor ulceration that required exclusion from the study). Mouse tumor volumes were measured using length, width and depth divided by 2. At each experimental endpoint, mice were humanely euthanized using CO2 inhalation in accordance to the American Veterinary Medical Association guidelines.
For all mouse models, 1×10^6 melanoma cells were injected subcutaneously in the right hind flanks of each mouse. […] This dosage is within ranges for dietary supplementation with L-fucose and other similar dietary sugars (e.g., D-mannose) in other rodent studies. When the tumors reached −2 cm^3, the animals were sacrificed, and the tumors either processed for flow cytometric profiling or for histological analysis as indicated.
Control vs. mFuk±L-fucose models (FIG. 1 & FIG. 8): SW1 or SM1 mouse melanoma cells were injected into syngeneic C3H/HeN (or NSG) female or C57BL/6 male mice, respectively, as follows: parental SW1 cells for FIG. 1A; parental SM1 cells for FIG. 1E; SW1 cells stably expressing either empty vector (EV) or mouse fucose kinase (mFuk) for FIG. 1L; and parental SW1 cells for FIG. 1M.
Control vs. L-fucose±FTY720 models (FIG. 2): SW1 or SM1 mouse melanoma cells were injected into syngeneic C3H/HeN (or NSG) female or C57BL/6 male mice, respectively. Cells were injected as follows: parental SW1 cells for FIG. 1A; parental SM1 cells for FIG. 1E; SW1 cells stably expressing either empty vector (EV) or mouse fucose kinase (mFuk) for FIG. 1L; and parental SW1 cells for FIG. 1M. FTY720 was administered at 20 μg every 2 days starting on Day 12, just prior to the initiation of LF, until endpoint.
Immunodepletion mouse models (FIG. 1 & FIG. 8): Three days prior to tumor engraftment, PBS (control) or ˜300 μg α-CD4 (20 mg/kg, for immunodepletion, GK1.5, Bioxcell (West Lebanon, NH)) or 0-CD8 (20 mg/kg, for immunodepletion, 2.43, Bioxcell (West Lebanon, NH)) was administered by intraperitoneal injection into the indicated cohorts of mice. Injections of immunodepletion antibody or PBS were continued every 3-4 days until endpoint. Syngeneic recipient C3H/HeN female or C57BL/6 male mice were injected with SW1 or SM1 cells, respectively. […]

In turn, `C[C@H](O)[C@@H](O)[C@@H](O)[C@H](O)C=O` [L-fucose] displayed an increased tumor fucosylation with SW1 tumors [1] of approximately 2 fold. In addition, the “SW1 tumor growth in immunodeficient mice” value in the assay on SW1 tumors [2] is recorded as “did not reduce”. In addition, the “immunostimulatory capacity of treated dendritic cells (DCs)” value in assay [3] is “enhanced immunostimulatory capacity”. The “phenotype of moDCs in co-culture with SW1 tumor cells” value in the assay on SW1 tumor cells is given as “cytotoxic-like phenotype”. Moreover, the “reduction of tumor growth” value in the assay on SW1 tumors [4] (CD4+T cell depletion) was “completely abrogated”. Moreover, the “efficacy of anti-PD1 when combined with oral L-fuc” value in the assay with SW1 tumors [4] (L-fuc in combination with anti-PD1) was “did not enhance efficacy of anti-PD1”. Further, the reduced tumor growth in the assay with SW1 tumors [4] (control and CD8+ T cell-depleted mice) is recorded as more than 50%; with SW1 tumors [4] (oral L-fuc), approximately 50%.
